Reference: patent US20250215029A1 (Recludix Pharma, Inc., priority 2022, published 2025)
pIC50: −log10 of the molar value.

target: T1, pY705-STAT3 in PBMC (Homo sapiens, UniProt P40763); test: MSD-pSTAT-PBMC Assay (pSTAT3, IL-6 stimulated); format: cell-based; settings: PBMC, compound 3 hrs, then 10 ng/mL IL-6 for 10 min; Table 115; read-out: STAT3
T1 construct: Cryopreserved Peripheral Blood Mononuclear Cells (PBMC) are from AllCells; host or cells: cryopreserved PBMC
How it was run: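 MSD electrochemiluminescence read-out: total STAT captured, probed with anti-pY641-STAT6 or anti-pY705-STAT3. Human PBMC, 3 h compound pretreatment, 10 min stimulation (IL-4 1 ng/mL or IL-6 10 ng/mL). Unstimulated signal subtracted, DMSO-normalized, variable-slope IC50.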

T1 sequence (P40763 whole entry): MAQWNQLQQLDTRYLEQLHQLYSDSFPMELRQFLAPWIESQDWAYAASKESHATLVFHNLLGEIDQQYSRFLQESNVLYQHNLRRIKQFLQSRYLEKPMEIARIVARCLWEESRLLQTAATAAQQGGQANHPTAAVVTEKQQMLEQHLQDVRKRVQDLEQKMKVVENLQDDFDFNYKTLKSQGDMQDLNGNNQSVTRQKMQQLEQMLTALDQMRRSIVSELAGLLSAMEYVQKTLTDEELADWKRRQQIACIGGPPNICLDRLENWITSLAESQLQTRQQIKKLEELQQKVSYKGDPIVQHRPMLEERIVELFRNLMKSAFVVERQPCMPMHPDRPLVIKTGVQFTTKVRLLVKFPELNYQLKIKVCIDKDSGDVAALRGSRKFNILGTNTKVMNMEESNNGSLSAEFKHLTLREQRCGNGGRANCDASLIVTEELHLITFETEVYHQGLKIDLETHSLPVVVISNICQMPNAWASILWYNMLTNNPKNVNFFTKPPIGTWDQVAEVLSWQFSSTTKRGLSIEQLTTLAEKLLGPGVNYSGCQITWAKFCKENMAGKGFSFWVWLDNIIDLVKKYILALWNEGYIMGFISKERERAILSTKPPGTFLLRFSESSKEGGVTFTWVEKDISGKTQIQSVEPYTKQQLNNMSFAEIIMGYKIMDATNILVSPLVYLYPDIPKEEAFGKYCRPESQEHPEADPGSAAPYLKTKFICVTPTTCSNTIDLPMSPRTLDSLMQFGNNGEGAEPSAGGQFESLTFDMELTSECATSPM

Structure (SMILES)	pIC50
CCCOC(=O)[C@H](C)NP(=O)(Cc1ccc2sc(C(=O)N[C@H]3CCC[C@H]4CC[C@@H](C(=O)N[C@H]5CN(C(C)=O)C[C@H]5F)N4C3=O)cc2c1)Oc1ccccc1 (stereo partly drawn) [Compound 309, propyl (((2-(((3S,6S,9aS)-3-(((3S,4R)-1-acetyl-4-fluoropyrrolidin-3-yl)carbamoyl)-5-oxooctahydro-1H-pyrrolo[1,2-a]azepin-6-yl)carbamoyl)benzo [b]thiophen-5-yl)methyl)(phenoxy)phosphoryl)-L-alaninate]	< 5.52
COc1ccncc1C1CN(C(=O)[C@@H]2CC[C@@H]3CCC[C@H](NC(=O)c4cc5cc([C@@H](F)[P@@](=O)(N[C@@H](C)C(=O)OC(C)C)Oc6ccccc6)ccc5s4)C(=O)N32)C1 (single isomer, unassigned) [Compound 1053]	> 7.00
CCCCOC(=O)[C@H](C)NP(=O)(Oc1cccc2ccccc12)C(F)(F)c1ccc2sc(C(=O)N[C@H]3CCC[C@H]4CC[C@@H](C(=O)N5CC(c6cccnc6)C5)N4C3=O)cc2c1 (stereo partly drawn) [Compound 971, butyl ((difluoro(2-(((3S,6S,9aS)-5-oxo-3-(3-(pyridin-3-yl)azetidine-1-carbonyl)octahydro-1H-pyrrolo[1,2-a]azepin-6-yl)carbamoyl)benzo [b]thiophen-5-yl)methyl) (naphthalen-1-yloxy)phosphoryl)-L-alaninate]	5.52 to 6.00
CCCOC(=O)[C@H](COC)NP(=O)(Cc1ccc2sc(C(=O)N[C@H]3CCC[C@H]4CC[C@@H](C(=O)N5CC(c6cnccc6N(C)C)C5)N4C3=O)cc2c1)Oc1ccccc1 (stereo partly drawn) [Compound 1017, propyl N-(((2-(((3S,6S,9aS)-3-(3-(4-(dimethylamino)pyridin-3-yl)azetidine-1-carbonyl)-5-oxooctahydro-1H-pyrrolo[1,2-a]azepin-6-yl)carbamoyl)benzo [b]thiophen-5-yl)methyl)(phenoxy)phosphoryl)-O-methyl-L-serinate]	> 7.00
CCCOC(=O)[C@H](C)NP(=O)(Oc1ccccc1)C(C)(F)c1ccc2sc(C(=O)N[C@H]3CCC[C@H]4CC[C@@H](C(=O)N5CC(c6cccnc6)C5)N4C3=O)cc2c1 (stereo partly drawn) [Compound 313, propyl ((1-fluoro-1-(2-(((3S,6S,9aS)-5-oxo-3-(3-(pyridin-3-yl)azetidine-1-carbonyl)octahydro-1H-pyrrolo[1,2-a]azepin-6-yl)carbamoyl)benzo [b]thiophen-5-yl)ethyl)(phenoxy)phosphoryl)-L-alaninate]	5.52 to 6.00
CCCOC(=O)[C@H](C)NP(=O)(Cc1ccc2sc(C(=O)N[C@H]3CC[C@@H](C)C[C@H]4CC[C@@H](C(=O)N5CC(c6cnccc6F)C5)N4C3=O)cc2c1)Oc1ccccc1 (stereo partly drawn) [Compound 988, propyl (((2-(((3S,6S,9R,10aR)-3-(3-(4-fluoropyridin-3-yl)azetidine-1-carbonyl)-9-methyl-5-oxodecahydropyrrolo [1,2-a]azocin-6-yl)carbamoyl)benzo [b]thiophen-5-yl)methyl)(phenoxy)phosphoryl)-L-alaninate]	> 7.00
CC(C)OC(=O)[C@H](C)NP(=O)(Cc1ccc2sc(C(=O)N[C@H]3CCC[C@H]4CC[C@@H](C(=O)N5CC(c6cccnc6)C5)N4C3=O)cc2c1)N[C@@H](C)C(=O)OC(C)C [Compound 399, diisopropyl 2,2′-((((2-(((3S,6S,9aS)-5-oxo-3-(3-(pyridin-3-yl)azetidine-1-carbonyl)octahydro-1H-pyrrolo[1,2-a]azepin-6-yl)carbamoyl)benzo [b]thiophen-5-yl)methyl)phosphoryl)bis(azanediyl)) (2S,2′S)-dipropionate]	5.52 to 6.00
CCCOC(=O)[C@H](C)NP(=O)(Cc1ccc2sc(C(=O)N[C@H]3CCC[C@H]4CC[C@@H](C(=O)N5CC(c6cnccc6Cl)C5)N4C3=O)cc2c1)Oc1ccccc1 (stereo partly drawn) [Compound 268, propyl (((2-(((3S,6S,9aS)-3-(3-(4-chloropyridin-3-yl)azetidine-1-carbonyl)-5-oxooctahydro-1H-pyrrolo[1,2-a]azepin-6-yl)carbamoyl)benzo [b]thiophen-5-yl)methyl)(phenoxy)phosphoryl)-L-alaninate]	6.00 to 7.00
O=C(N[C@H]1CCC[C@H]2CC[C@@H](C(=O)N3CC(c4cccnc4)C3)N2C1=O)c1cc2cc(CP(=O)(N[C@H]3CCOC3=O)Oc3ccccc3)ccc2s1 (stereo partly drawn) [Compound 398, phenyl P-((2-(((3S,6S,9aS)-5-oxo-3-(3-(pyridin-3-yl)azetidine-1-carbonyl)octahydro-1H-pyrrolo[1,2-a]azepin-6-yl)carbamoyl)benzo [b]thiophen-5-yl)methyl)-N-((S)-2-oxotetrahydrofuran-3-yl)phosphonamidate]	< 5.52
CCCOC(=O)[C@H](C)NP(=O)(Oc1ccccc1)[C@@H](F)c1ccc2sc(C(=O)N[C@H]3CCC[C@H]4CC[C@@H](C(=O)N5CC(c6cncc(F)c6NC)C5)N4C3=O)cc2c1 (stereo partly drawn) [Compound 1026, propyl (((R)-fluoro(2-(((3S,6S,9aS)-3-(3-(5-fluoro-4-(methylamino)pyridin-3-yl)azetidine-1-carbonyl)-5-oxooctahydro-1H-pyrrolo[1,2-a]azepin-6-yl)carbamoyl)benzo [b]thiophen-5-yl)methyl)(phenoxy)phosphoryl)-L-alaninate]	> 7.00
CCCOC(=O)[C@H](C)NP(=O)(Oc1ccccc1)[C@@H](F)c1ccc2sc(C(=O)N[C@H]3C[C@@H](C)C[C@H]4CC[C@@H](C(=O)N5CC(c6cncnc6N6CCC6)C5)N4C3=O)cc2c1 (some centres unmarked) [Compound 1077]	> 7.00
CCCOC(=O)[C@H](C)NP(=O)(Oc1ccccc1)C(F)c1ccc2sc(C(=O)N[C@H]3CCC[C@H]4CC[C@@H](C(=O)N5CC(c6cncnc6OC)C5)N4C3=O)cc2c1 (stereo partly drawn) [Compound 1042, propyl ((fluoro(2-(((3S,6S,9aS)-3-(3-(4-methoxypyrimidin-5-yl)azetidine-1-carbonyl)-5-oxooctahydro-1H-pyrrolo[1,2-a]azepin-6-yl)carbamoyl)benzo [b]thiophen-5-yl)methyl)(phenoxy)phosphoryl)-L-alaninate]	6.00 to 7.00
CCCOC(=O)C1(NP(=O)(Cc2ccc3sc(C(=O)N[C@H]4CCC[C@H]5CC[C@@H](C(=O)N6CC(c7cccnc7)C6)N5C4=O)cc3c2)Oc2ccccc2)CC1 (stereo partly drawn) [Compound 434, propyl 1-((((2-(((3S,6S,9aS)-5-oxo-3-(3-(pyridin-3-yl)azetidine-1-carbonyl)octahydro-1H-pyrrolo[1,2-a]azepin-6-yl)carbamoyl)benzo [b]thiophen-5-yl)methyl)(phenoxy)phosphoryl)amino) cyclopropane-1-carboxylate]	6.00 to 7.00
CCCOC(=O)[C@H](C)N[P@](=O)(Oc1ccccc1)[C@@H](F)c1ccc2sc(C(=O)N[C@H]3CCC[C@H]4CC[C@@H](C(=O)N5CC(c6cccnc6)C5)N4C3=O)cc2c1 (single isomer, unassigned) [Compound 446]	> 7.00
CC(C)(C)C(=O)SCCOP(=O)(OCCSC(=O)C(C)(C)C)C(F)(F)c1ccc2sc(C(=O)N[C@H]3CCCC[C@H]4CC[C@@H](C(=O)NCc5cnc6[nH]cnc6c5)N4C3=O)cc2c1 [Compound 1005, S,S′-(((((2-(((3S,6S,10aS)-3-(((3H-imidazo[4,5-b]pyridin-6-yl)methyl)carbamoyl)-5-oxodecahydropyrrolo [1,2-a]azocin-6-yl)carbamoyl)benzo [b]thiophen-5-yl)difluoromethyl)phosphoryl)bis(oxy))bis(ethane-2,1-diyl)) bis(2,2-dimethyl-propanethioate)]	> 7.00
CCCOC(=O)[C@H](C)NP(=O)(Cc1ccc2sc(C(=O)N[C@H]3CCC[C@H]4CC[C@@H](C(=O)N5CC(c6cccnc6C(F)F)C5)N4C3=O)cc2c1)Oc1ccccc1 (stereo partly drawn) [Compound 272, propyl (((2-(((3S,6S,9aS)-3-(3-(2-(difluoromethyl)pyridin-3-yl)azetidine-1-carbonyl)-5-oxooctahydro-1H-pyrrolo[1,2-a]azepin-6-yl)carbamoyl)benzo [b]thiophen-5-yl)methyl)(phenoxy)phosphoryl)-L-alaninate]	> 7.00
O=C(N[C@H]1CCC[C@H]2CC[C@@H](C(=O)N3CC(c4cccnc4)C3)N2C1=O)c1cc2cc(CP(=O)(N[C@@H](CCc3ccccc3)C(=O)OCc3ccccc3)Oc3ccccc3)ccc2s1 (stereo partly drawn) [Compound 401, benzyl (2S)-2-((((2-(((3S,6S,9aS)-5-oxo-3-(3-(pyridin-3-yl)azetidine-1-carbonyl)octahydro-1H-pyrrolo[1,2-a]azepin-6-yl)carbamoyl)benzo [b]thiophen-5-yl)methyl)(phenoxy)phosphoryl)amino)-4-phenylbutanoate]	< 5.52
COc1ccncc1C1CN(C(=O)[C@@H]2CC[C@@H]3CCC[C@H](NC(=O)c4cc5cc([C@H](F)[P@@](=O)(N[C@@H](C)C(=O)OCC(C)(C)C)Oc6ccccc6)ccc5s4)C(=O)N32)C1 (single isomer, unassigned) [Compound 959]	> 7.00
CCCOC(=O)[C@H](C)NP(=O)(Oc1ccccc1)C(F)(F)c1ccc2sc(C(=O)N[C@H]3CCC[C@H]4CC[C@@H](C(=O)N5CC(c6cccnc6)C5)N4C3=O)cc2c1 (stereo partly drawn) [Compound 400, propyl ((difluoro(2-(((3S,6S,9aS)-5-oxo-3-(3-(pyridin-3-yl)azetidine-1-carbonyl)octahydro-1H-pyrrolo[1,2-a]azepin-6-yl)carbamoyl)benzo [b]thiophen-5-yl)methyl)(phenoxy)phosphoryl)-L-alaninate]	6.00 to 7.00
CCCOC(=O)[C@H](C)NP(=O)(Cc1ccc2sc(C(=O)N[C@H]3CCC[C@H]4CC[C@@H](C(=O)N5CC(c6cccnc6)C5)N4C3=O)cc2c1)Oc1c(C)cccc1C (stereo partly drawn) [Compound 293, propyl ((2,6-dimethylphenoxy) ((2-(((3S,6S,9aS)-5-oxo-3-(3-(pyridin-3-yl)azetidine-1-carbonyl)octahydro-1H-pyrrolo[1,2-a]azepin-6-yl)carbamoyl)benzo [b]thiophen-5-yl)methyl)phosphoryl)-L-alaninate]	> 7.00
